Data from US9045450B2, “Method for chemical synthesis of antrocin and use thereof for suppressing non-small cell lung cancer” (KAIYEW INVESTMENT CORP., priority 2011, dated 2015).
“Also recorded” adds a separate entry of the source.

Legend:
[1] = tested on: normal human bronchial epithelial cells (BEAS-2B); assay: Cytotoxicity, sulforhodamine B; assay type: cell-based; conditions: antrocin 0.5-10 μM, two days, FIG. 4 (A)
Protocol: (§1) Human lung cancer cell lines (CL1-0, CL1-5, H1975, H441, PC9, A549) and human bronchial epithelia cell lines (BEAS-2B) were obtained from the Institute of Clinical Medicine, Taipei Medical University. The cells were grown and maintained in DMEM medium (Dulbecco's Modified Eagle's Medium and RPMI basal medium supplemented with 10% fetal bovine serum, 2 mM glutamine, […] streptomycin, and 100 U/ml penicillin in a wet incubator at 5% CO2.
Human lung cancer cells (CL1-0, CL1-5, H1975, H441, PC9, A549) and human bronchial epithelial cells (BEAS-2B) were seeded in 96-well culture plates (2000 cells/well) and incubated overnight in 100 μl complete DMEM. Equal amount of complete DMEM sample containing 50 μl antrocin (0.5-10 μM) was placed in other wells of the culture plates. Further, 100 μl complete DMEM sample was also placed in wells as the control group. After two days, total number of human cells in each well was measured using sulforhodamine B (a fluorescent protein dye). Briefly, human cells were fixed in 10% trichloroacetic acid and stained with 0.4% sulforhodamine B. After being stained for 20 minutes, the human cells were washed with 1% acetic acid, and then sulforhodamine B, which was bound with human cells, was dissolved in 10 mM tris base. The optical density was measured at 562 nm by a microtiter plate detector. […]

[2] = tested on: human non-small cell lung cancer cells (CL1-0, CL1-5, H1975, H441, PC9, A549); assay: Cytotoxicity / cell proliferation, sulforhodamine B; assay type: cell-based; conditions: NSCLC cell lines, antrocin 0.5-10 μM, two days, FIG. 4 (A)
Protocol: as §1
(§2) Lung cancer cell were grown in a medium supplemented with 10% fetal bovine serum until the cells grew to approximately 80% of their full-blown size. Old culture solution was drained, the lung cancer cells were washed with PBS buffer solution (phosphate buffered saline), and 10 ml of serum-free culture medium was added. Different pharmaceutical drugs were added according to experimental purposes, all reactions were carried out in an incubator at 37° C.
(§3) Human lung cancer cells (CL1-0, CL1-5, H1975, H441, PC9, A549) and human bronchial epithelial cells (BEAS-2B) were seeded in 96-well culture plates (2000 cells/well) and incubated overnight in 100 μl complete DMEM. […] After two days, total number of human cells in each well was measured using sulforhodamine B (a fluorescent protein dye). […] The optical density was measured at 562 nm by a microtiter plate detector. […]

XIAP = assay: Protein expression in H441 cells (FIG. 6); assay type: cell-based, human
Excerpt: (§4) The inhibitory effect of antrocin on protein expression is presented as relative multiple.Beta-actin protein was the internal reference (loading control).

caspase-3 enzyme = assay: Protein expression in H441 cells (FIG. 6); assay type: cell-based, human; conditions: increasing dose
Excerpt: as §4

cyclin D1 = assay: Protein expression in H441 cells (FIG. 6); assay type: cell-based, human
Excerpt: as §4

H1975 cells = assay: Cytotoxicity / cell proliferation, sulforhodamine B; assay type: cell-based, human; conditions: H1975, antrocin 0.5-10 μM, two days, FIG. 4 (A)
Protocol: as §1, §2, §3

H441 cells = assay: as above; assay type: cell-based, human; conditions: H441, antrocin 0.5-10 μM, two days, FIG. 4 (A)
Protocol: as §1, §2, §3

breast cancer cells = conditions: natural antrocin isolated from Antrodia; Rao et al., 2011; cited from earlier work

C=C1CC[C@H]2C(C)(C)CCC[C@@]23C(=O)OC[C@@H]13 [antrocin]
cytotoxicity against normal human bronchial epithelial cells [1]: no cytotoxicity | inhibitory effect on cancer cell proliferation [2]: significant inhibitory effect | inhibition of XIAP protein expression (XIAP): dose-dependently inhibited | activation of caspase enzyme 3 (caspase-3 enzyme): markedly activated | inhibition of cyclin D1 protein expression (cyclin D1): dose-dependently inhibited | inhibition of cancer cell growth/proliferation (H1975 cells): most robust inhibitions | inhibition of cancer cell growth/proliferation (H441 cells): most robust inhibitions | inhibition of cell proliferation in breast cancer cells (breast cancer cells): inhibited the cell proliferation; also recorded: effectively inhibited cell proliferation
